Results reported in article PMC5244392, “Interspecies cathelicidin comparison reveals divergence in antimicrobial activity, TLR modulation, chemokine induction and regulation of phagocytosis” (Scientific Reports, 2017).

Tests used:
E. coli and MRSA = assay type: cell-based; conditions: run of Fig. 1A; bacterium and medium not given
Protocol: In order to compare our Cmax with MBC values, wells without visible bacterial growth were plated out on TSA plates and incubated o/n at 37 °C to determine the presence of viable bacteria.
The antimicrobial capacities were tested under the same conditions and expressed as growth delay instead of the more classical MIC/MBC determination using broth dilution assays. […] The fact that DMEM medium makes S. aureus susceptible to PR-39 is surprising since this peptide is thought to require active uptake by the SbmA transporter, only present in Gram – bacteria. The results obtained in this work, might indicate that the peptide possibly switches to a different mechanism of action with initially a bacteriostatic effect, but more thorough studies are required to elucidate the details of these initial observations.

[1] = system: methicillin resistant Staphylococcus aureus (MRSA) (WKZ-2, human clinical isolate); experiment: Bacterial growth delay (Bioscreen C), MRSA; assay type: cell-based
Protocol: (§1) E. coli O78 (Zoetis Animal Health, Kalamazoo, MI, USA), E. coli ATCC 25922, Staphylococcus aureus ATCC 29213, and methicillin resistant Staphylococcus aureus (MRSA) (WKZ-2, human clinical isolate) were grown overnight from a glycerol stock in Mueller Hinton Broth (MHB) (Becton Dickinson, USA). Before use, bacteria were grown to mid-log phase in MHB for 2 hours at 37 °C, 200 RPM. Murine RAW264.7 macrophages (ATCC-TIB-71) were obtained from the American Type Culture Collection (ATCC, Manassas, VA, USA) and cultured in DMEM (41966-029; Thermo Fisher Scientific, Waltham, MA, USA) supplemented with 10% FCS (Bodinco B.V., Alkmaar, the Netherlands) (DMEM + FCS) at 37 °C, 5.0% CO2. Cells were seeded in 96-wells plates at 5 × 10^5 cells/ml or 12-wells plates at 2 × 10^5/ml for adherence overnight prior to stimulation.
(§2) Peptides (0.63 to 40 μM) and bacteria mid-log cultures (2 * 10^6 CFU/ml) were prepared in MHB or DMEM + FCS and mixed (100 μl peptide + 100 μl bacterial culture) in a Bioscreen C analyzer plate (Oy Growth Curves Ab Ltd, Helsingfors, Finland). Plates were placed in a Bioscreen C analyzer (Oy Growth Curves Ab Ltd) and bacteria were grown for 16 h at 37 °C with 200 RPM. The OD was measured every 15 minutes using a wideband filter (450–580 nm) to measure bacterial growth. The time needed grow above an OD of 0.6 was determined for all concentrations. Activity of peptides was expressed as the Cmax, the concentration of peptide required to delay the growth for 10 h compared to the control. Or, for peptides with low activity (no Cmax), activity was expressed as the hours of growth delay at 20 μM. Unlike the classic MIC and MBC determination used in microbiology, this method also enabled comparison of peptides with low antibacterial activity.
(§3) Twelve cathelicidins from 6 different species were selected for this study, namely: human LL-37, murine CRAMP, dog K9CATH, equine CATH (eCATH)-1, -2 and -3, chicken CATH (chCATH)-1, -2, and -3, porcine PMAP-23 and -36 and PR-39 (Table 1). Antimicrobial activity against E. coli and MRSA was directly compared under standardized conditions in MHB, a medium optimized for bacterial growth. Bacterial growth delay was defined as the delay in hours for peptide-treated bacteria to reach an OD of 0.6, compared to the non-treated control. Cmax is the minimal concentration needed to delay growth for a minimum of 10 hours compared to the non-treated control (Table 1 and Fig. 1A).
(§4) Figure 1 Antibacterial activity of cathelicidins. E. coli and MRSA (1 × 10^6 CFU/ml) of were grown in MHB or DMEM ± FCS for 16 hours under constant shaking (200 RPM). Every 15 minutes the OD was measured. Growth delay was defined as the time needed for peptide-treated bacteria to grow above an OD of 0.6 compared to the control bacteria (no peptide added) (A). Cathelicidins were tested in different concentrations (0.31 μM, 0.63 μM, 1.25 μM, 2.5 μM, 5 μM, 10 μM, and 20 μM) to determine the antimicrobial activity in MHB against E. coli (B) or MRSA (C) and in more physiological medium DMEM + FCS (D,E). Results are presented as average +/− SEM (N = 4).

E. coli O78 = experiment: Bacterial growth delay (Bioscreen C), E. coli; assay type: cell-based, Escherichia coli; conditions: for Max: hours growth delay with 20 μM cathelicidin, E. coli, DMEM: DMEM + FCS
Protocol: as §1, §2, §3, §4

RAW264.7 cells = experiment: Phagocytosis assay with fluorescent latex beads; assay type: cell-based, murine; conditions: latex beads 10 per cell, 30 min, peptide 0.31, 1.25 and 5 μM
Protocol: Red fluorescent (λex 575 nm and λem 610 nm) carboxylate-modified polystyrene latex beads (0.5 μm; Sigma Aldrich, St. Louis, MO, USA) were washed three times with PBS and resuspended in culture medium. Peptide dilutions were prepared in culture medium and added to RAW264.7 cells, directly followed by the latex beads (ratio 10 beads to 1 cell). Cells were incubated for 30 minutes at 37 °C, 5% CO2 (energy-dependent uptake) or 0 °C (non-specific adherence), after which cells were washed extensively with ice-cold PBS supplemented with 1% FCS and 0.01% NaN3, to remove all free beads. After washing, cells were scraped and resuspended in FACS buffer (PBS supplemented with 0.5% BSA). Samples were measured with the BD FACSCanto II flow cytometer (BD Biosciences, San Jose, CA, USA) and analyzed with FlowJo software (Ashland, OR, USA). Mean fluorescence intensity (MFI), corrected for non-specific adherence, was used as an indicator for the number of beads taken up.
While the above-described functions of cathelicidins are well-known, relatively little is known about the influence of cathelicidins on phagocytosis. Therefore, RAW264.7 cells were incubated with fluorescent beads to study the effect of cathelicidins on phagocytosis. The uptake was corrected for fluorescence measured after incubation on ice instead of 37 °C, which inhibits the active process of phagocytosis. After 30 minutes, 90% of the RAW264.7 cells took up latex beads (Fig. 4A). Histograms exemplify changes in bead phagocytosis with different concentrations of K9CATH (Fig. 4B), eCATH-2 (Fig. 4C) and chCATH-3 (Fig. 4D). Effect of all cathelicidins are depicted by the average mean fluorescence intensity (MFI) in Fig. 4E.
Figure 4 Effects of cathelicidins on phagocytosis by RAW264.7 cells. RAW264.7 cells were incubated with cathelicidins (0.31 μM, 1.25 μM, and 5 μM) and red fluorescent latex beads (10 beads to 1 cell) at 37 °C (energy dependent uptake) or on ice (non-specific adherence) for 30 minutes. Histograms show control (no peptide present) bead uptake at 37 °C (gray, filled) and 0 °C (black line) (A), or uptake in presence of different concentrations of indicated cathelicidins (B–D); 0 μM (red, filled), 0.31 μM (black line), 1.25 μM (green line) or 5 μM (blue line). Uptake was quantified by determining the MFI after correction for 0 °C control (E). Results are presented as average +/− SEM (N = 3). Statistical differences were determined by Two-way ANOVA with Bonferroni post-hoc test.

[2] = system: CCL2 (MCP-1) release by RAW264.7 cells; experiment: Cathelicidin induced CCL2 release; assay type: cell-based, murine; conditions: 24 h, peptide 0.08-20 μM
Protocol: as §1
ELISA Duoset kits for mouse TNFα, CCL5, CXCL10 and IL-10 were obtained from R&D systems (Minneapolis, MN, USA) and ELISAs were performed according to the manufacturer’s protocol. Samples were stored at −20 °C until analysis and, if needed, diluted in 1% BSA in PBS, pH 7.4. Absorbance at 450 nm was determined in a FLUOstar Omega microplate reader (BMG Labtech GmbH) and corrected for absorbance at 570 nm. Results were analyzed with MARS data analysis software (BMG Labtech GmbH).
Since cathelicidins have membrane-perturbing properties which might affect the host’s cell membrane, first the possible cytotoxicity of the cathelicidins to RAW264.7 cells was assessed. […] Next, RAW264.7 cells were stimulated with the cathelicidins at various concentrations for 2 h and 24 h, after which release of CCL2 (MCP-1), CCL5 (RANTES), CXCL10 (IP-10), TNFα and IL-10 was determined.
Figure 2 Cathelicidin induced chemokine and cytokine release by RAW264.7 cells. RAW264.7 cells were incubated for 2 h and 24 h with cathelicidins (0.08 μM, 0.31 μM, 1.25 μM, 5 μM, and 20 μM), after which the supernatants were harvested and tested for release of CCL2 at 2 h (A) and 24 h (B), CCL5 at 24 h (C) and CXCL10 at 24 h (D). Dotted line represents average cytokine release of control samples. Results are presented as average +/− SEM (N = 3). Statistical differences were determined by Two-way ANOVA with Bonferroni post-hoc test.

[3] = MHB, 20 μM peptide, given if no Cmax was reached, N = 4
[4] = 20 μM peptide, given if no Cmax was reached, N = 4

Compound | MBC (E. coli and MRSA) | Max: hours growth delay with 20 μM cathelicidin, MRSA, DMEM ([1]; DMEM + FCS, 20 μM peptide, given if no Cmax was reached, N = 4) | Max: hours growth delay with 20 μM cathelicidin, MRSA, MHB [1, 3] | Max: hours growth delay with 20 μM cathelicidin, E. coli, DMEM (E. coli O78; [4]) | Activity against E. coli in MHB, in words (E. coli O78; MHB, peptide up to 20 μM) | Max: hours growth delay with 20 μM cathelicidin, E. coli, MHB (E. coli O78; MHB, 20 μM peptide, given if no Cmax was reached, time to OD 0.6 vs control, N = 4) | Effect on bead uptake (phagocytosis), in words (RAW264.7 cells) | Effect on CCL2 secretion after 24 h stimulation, in words [2] | Cmax, MRSA, DMEM ([1]; DMEM + FCS, 1 × 10^6 CFU/ml, peptide 0.31-20 μM, 16 h, 37 °C, — = no Cmax reached up to 20 μM, N = 4) | Summary class, antimicrobial activity S. aureus DMEM ([1]; DMEM + FCS, MRSA, − is not defined in the key) | Summary class, antimicrobial activity S. aureus MHB ([1]; MHB, MRSA, − is not defined in the key) | Cmax: cathelicidin concentration resulting in a delay in bacterial growth with minimal 10 hours, E. coli, MHB (E. coli O78; MHB, 1 × 10^6 CFU/ml, peptide 0.31-20 μM, 16 h, 37 °C, 200 RPM, time to OD 0.6 vs control, — = no Cmax reached up to 20 μM, N = 4) | Summary class, antimicrobial activity E. coli MHB (E. coli O78; MHB, − is not defined in the key)
CC[C@H](C)[C@H](NC(=O)[C@H](CCCCN)NC(=O)[C@H](CCC(=O)O)NC(=O)[C@H](CCCCN)NC(=O)[C@H](CO)NC(=O)[C@H](CCCCN)NC(=O)[C@H](CCCNC(=N)N)NC(=O)[C@H](Cc1ccccc1)NC(=O)[C@H](Cc1ccccc1)NC(=O)[C@H](CC(=O)O)NC(=O)CNC(=O)[C@H](CC(C)C)NC(=O)[C@@H](N)CC(C)C)C(=O)NCC(=O)N[C@@H](CCCCN)C(=O)N[C@@H](CCC(=O)O)C(=O)N[C@@H](Cc1ccccc1)C(=O)N[C@@H](CCCCN)C(=O)N[C@@H](CCCNC(=N)N)C(=O)N[C@H](C(=O)N[C@H](C(=O)N[C@@H](CCC(N)=O)C(=O)N[C@@H](CCCNC(=N)N)C(=O)N[C@H](C(=O)N[C@@H](CCCCN)C(=O)N[C@@H](CC(=O)O)C(=O)N[C@@H](Cc1ccccc1)C(=O)N[C@@H](CC(C)C)C(=O)N[C@@H](CCCNC(=N)N)C(=O)N[C@@H](CC(N)=O)C(=O)N[C@@H](CC(C)C)C(=O)N[C@H](C(=O)N1CCC[C@H]1C(=O)N[C@@H](CCCNC(=N)N)C(=O)N[C@H](C(=O)N[C@@H](CCC(=O)O)C(=O)N[C@@H](CO)C(=O)O)[C@@H](C)O)C(C)C)[C@@H](C)CC)C(C)C)[C@@H](C)CC [LL-37] | > 20 µM |  |  |  |  |  |  |  |  |  |  |  | 
KRFHSVGSLIQRHQQMIRDKSEATRHGIRIITRPKLLLAS [eCATH-3, equine CATH-3, 40 residues, charge +10] |  | 1.5 h | 0.0 h | 1.5 h | no or very little activity | 0.0 h | did not affect bead uptake |  |  |  |  |  | 
KRFGRLAKSFLRMRILLPRRKILLAS [eCATH-1, equine CATH-1, 26 residues, charge +9] |  |  | 7.5 h | 3.5 h |  |  | did not affect bead uptake | non-significant | 20 µM | +++ (+++ = Cmax at ≤20 μM) | + (+ = >4 hours inhibition at 20 μM) | 20 µM | +++ (+++ = Cmax at ≤20 μM)
